Where two headings read alike, the source gives them in different places.
Key:
gastric mucosa [1] = settings: common adverse effect of consumption; cited from earlier work
[2] = system: platelet activating factor (PAF); experiment: PAF Induced Mortality; assay type: in vivo, mouse (Charles River CD-1, female); settings: for protective effect (in words): compared with Formula I
Procedure: The induction of mortality by the injection of low doses of PAF into mice has been described as a method for assessing the effectiveness of agents to antagonize the anaphylactic properties of PAF by J. M. Young, P. J. Maloney, S. W. Jubb and J. S. Clarke, in Prostaglandins, 30:545-551 (1985). Charles River CD-1 female mice (25-30 g) were given intraperitoneal injections of PAF (10 μg) dissolved in 100 μl of 5% ethanol-saline. […] Test drugs were orally administered in 50 μl of peanut oil one hour prior to PAF injection. Control mice were dosed with vehicle only. Mortality was assessed by counting survivors at one hour, two hours, and twenty four hours after the PAF injection.

[3] = system: platelet activating factor (PAF); settings: reported by Calhoun et al., Agents & Actions, 21:306-309 (1987); cited from earlier work
arachidonic acid = experiment: The Mouse Ear Edema Test (arachidonic acid-induced skin edema); assay type: in vivo, mouse (Charles River CD-1, female); settings: 1 hour before arachidonic acid (0.5 mg)
Description: The direct application of arachidonic acid to skin, such as the mouse ear, produces an edematous response which is believed to be mediated by eicosanoids resulting from the actions of both cyclooxygenase and lipoxygenase systems. J. M. Young, D. A. Spires, C. J. Bedford, B. Wagner, S. J. Ballaron and L. M. DeYoung, J. Invest. Dermatol. 82:367-371 (1984); E. E. Opas, R. J. Bonney, and J. L. Hanes J. Invest. Dermatol. 84:253-256 (1985). PAF has been reported to cause the release of arachidonic acid, and as a result, gives rise to increased levels of eicosanoids in the exposed tissues. F. H. Chilton, J. T. Flaherty, C. E. Walsh, M. J. Thomas, R. L. Wykle, L. R. DeChatelet and B. M. Waite, J. Biol. Chem., 257:5402-5407 (1982). Thus, the mouse ear edema test can be used to discover substances which antagonize the effects of PAF.
The test drugs were dissolved in 10 μl ethanol and applied to the inner surface of the left ears of Charles River CD-1 female mice. Control values were obtained by applying 10 μl of ethanol to the right ear so that each mouse served as its own control. One hour later, arachidonic acid (0.5 mg/ear in 10 μl ethanol) was applied to both ears and allowed to act on the skin for one hour. The mice were then killed by cervical dislocation and the ears removed so that all tissue samples were of equivalent areas. The extent of edema in each sample was measured by weighing on an analytical balance.

[4] = system: platelet activating factor (PAF); experiment: PAF Induced Paw Edema in the Mouse; assay type: in vivo, mouse (Charles River CD-1, female); settings: 1 hour before PAF (1 ug/paw), 15 min after PAF
Procedure: The experimental procedure was adapted from Calhoun et al., Agents & Actions, 21:306-309 (1987). Charles River CD-1 female mice (20-25 G) were given a dose of Formula I, or phenidone, using peanut oil as a carrier. Control mice were given doses of the carrier alone. The drugs were administered orally in a 50 μl volume of peanut oil. One hour later, 1.0 μg of PAF dissolved in 50 μl of 5% ethanol-saline was injected subcutaneously into the plantar surface of the right hind paw. The volume of this injected foot to the level of the lateral malleous was measured by water displacement immediately before drug administration and again 15 minutes after PAF injection.
The effectiveness of each compound was analyzed in the following manner. The individual paw volumes were compared by a paired t test analysis in which predrug paw volumes were compared to paw volumes 15 minutes after PAF injection to determine the level of statistical significance. The percent inhibition of edema volume was obtained from the ratio of the mean predrug volume to the mean volume after PAF.

gastric mucosa [5] = settings: 1 hour; for Mean Score: scale 0-3 (0 = normal mucosa)
Procedure: Robert and Szabo, In: Selye's Guide to Stress Research, (Vol. 2, A. Selye, Ed.) New York; Van Nostrand Reinhold Co., pp. 22-46 (1983); and Robert et al., Gastroenterology, 77:433-443 (1979). Experimental groups of 5-11 rats (Charles River CD) were fasted for 24 hours before the administration of either aspirin, Formula I or indomethacin by a rubber stomach tube (Rusch No. 8). The animals were killed 1 hour later by carbon dioxide asphyxiation. At that time, 4 ml of 10% aqueous buffered formaldehyde (formalin) was injected directly into the stomach of each animal. […] After 5 minutes of in situ fixation, the stomach and proximal duodenum were removed, opened along the greater curvature, pinned on a cork with mucosa upward, and immersed in 10% formaldehyde until further processing. Szabo, S. et al., J. Pharmacol. Meth., 13:59-66 (1985). The gastric lesions were then evaluated by direct visual inspection.
For comparative purposes, a semiquantitative scale of 0-3 was used to assess the extent of gastric mucosal lesions. Szabo et al., Science, 214:200-202 (1981); and Szabo et al., Gastroenterology, 85:1384-1390 (1983). According to this scale, a score of 0 indicates a normal mucosa; 1 represents the appearance of between 1 and 4 small petechiae; 2 indicates the presence of 5 or more petechiae or hemmorhagic streaks up to 4 mm in length; 3 represents the appearance of erosions longer than 5 mm or confluent hemmorrhages.

[6] = 20 mg/kg oral, 1 hr after PAF (10 μg i.p.)
[7] = 20 mg/kg oral, 2 hrs after PAF (10 μg i.p.)
[8] = 20 mg/kg oral, 24 hrs after PAF (10 μg i.p.)
[9] = 40 mg/kg oral, 1 hr after PAF (10 μg i.p.)
[10] = 40 mg/kg oral, 2 hrs after PAF (10 μg i.p.)
[11] = 40 mg/kg oral, 24 hrs after PAF (10 μg i.p.)

For COc1ccc2cc([C@H](C)C(=O)O)ccc2c1 [Naproxen, naproxen, reference compound], the “gastrointestinal damage (in words)” value (gastric mucosa [1]) is given as “gastrointestinal damage, generally manifested as bleeding and/or frank ulceration”, the “Survivors (%)” value [2, 6] is given as 40% and the Survivors/N [2, 6] is given as 4/10. For the same compound, the “Survivors (%)” value [2, 7] was 40%, the Survivors/N [2, 7] was 4/10 and the “Survivors (%)” value [2, 8] was 20%. The Survivors/N [2, 8] was 2/10, the “Survivors (%)” value [2, 9] was 100% and the Survivors/N [2, 9] was 5/5. For the same compound, the “Survivors (%)” value [2, 10] was 60%, the Survivors/N [2, 10] was 3/5 and the “Survivors (%)” value [2, 11] was 60%. For the same compound, the Survivors/N [2, 11] was 3/5 and the “protective effect (in words)” value [2] was “less protective than Formula I, particularly at longer time intervals”.
For O=C1CCN(c2ccccc2)N1 [Phenidone, phenidone, reference compound], the “effectiveness against PAF edema (in words)” value [3] is given as “effective against PAF edema”, the “% Inhibition of Edema” value (arachidonic acid; 0.063 mg/ear topical) is given as 15.4% and the “% Inhibition of Edema” value (arachidonic acid; 0.13 mg/ear topical) is given as 26.6%. For the same compound, the “% Inhibition of Edema” value (arachidonic acid; 0.25 mg/ear topical) was 24.4%, the “gastrointestinal damage (in words)” value (gastric mucosa [1]) was “gastrointestinal damage, generally manifested as bleeding and/or frank ulceration” and the “Survivors (%)” value [2, 9] was 20%. The Survivors/N [2, 9] was 1/5, the “Survivors (%)” value [2, 10] was 20% and the Survivors/N [2, 10] was 1/5. The “Survivors (%)” value [2, 11] was 20%, the Survivors/N [2, 11] was 1/5 and the “protective effect (in words)” value [2] was “less protective than Formula I, particularly at longer time intervals”. For the same compound, the “% Inhibition of Edema” value ([4]; 40 mg/kg oral) was 20.4% and the “% Inhibition of Edema” value ([4]; 80 mg/kg oral) was 35.7%.
With COc1ccc2c(c1)c(CC(=O)O)c(C)n2C(=O)c1ccc(Cl)cc1 [Indomethacin, indomethacin] the “% Inhibition of Edema” value (arachidonic acid; 0.05 mg/ear topical) was 24.1%, the “% Inhibition of Edema” value (arachidonic acid; 0.10 mg/ear topical) was 21.8% and the “Incidence (rats with lesions/total tested)” value (gastric mucosa [5]; 10 mg/kg by stomach tube) was 2/5. The “Mean Score” value (gastric mucosa [5]; 10 mg/kg by stomach tube) was 0.6, the “Incidence (rats with lesions/total tested)” value (gastric mucosa [5]; 20 mg/kg by stomach tube) was 6/11 and the “Mean Score” value (gastric mucosa [5]; 20 mg/kg by stomach tube) was 0.77.
For CC(=O)Oc1ccccc1C(=O)O [Aspirin, aspirin], the “Mean Score” value (gastric mucosa [5]; 100 mg/kg by stomach tube) was 1.9.
